Measured values taken from ChEMBL document CHEMBL3400053, “trans-3,4-Disubstituted pyrrolidines as inhibitors of the human aspartyl protease renin. Part II: prime site exploration using an oxygen linker” (Bioorg Med Chem Lett, 2015).

Legend:
Renin = biological target: T1, Renin (Homo sapiens, UniProt P00797); assay: Inhibition of human recombinant renin by TR-FRET assay
T1 sequence (P00797 whole entry): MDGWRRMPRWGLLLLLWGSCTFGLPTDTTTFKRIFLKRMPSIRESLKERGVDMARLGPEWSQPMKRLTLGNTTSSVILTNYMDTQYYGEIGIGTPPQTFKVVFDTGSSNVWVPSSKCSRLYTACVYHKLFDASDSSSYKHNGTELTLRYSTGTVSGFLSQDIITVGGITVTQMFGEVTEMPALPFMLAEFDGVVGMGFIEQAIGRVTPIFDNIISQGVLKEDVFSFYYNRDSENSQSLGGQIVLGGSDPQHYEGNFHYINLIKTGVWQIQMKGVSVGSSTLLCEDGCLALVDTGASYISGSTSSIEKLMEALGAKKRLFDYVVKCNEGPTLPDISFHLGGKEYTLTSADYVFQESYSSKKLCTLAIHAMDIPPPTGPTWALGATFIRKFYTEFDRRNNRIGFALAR

Beta-secretase 2 = biological target: T2, Beta-secretase 2 (Homo sapiens, UniProt Q9Y5Z0); assay: Inhibition of BACE2 (unknown origin)
T2 sequence (Q9Y5Z0 whole entry): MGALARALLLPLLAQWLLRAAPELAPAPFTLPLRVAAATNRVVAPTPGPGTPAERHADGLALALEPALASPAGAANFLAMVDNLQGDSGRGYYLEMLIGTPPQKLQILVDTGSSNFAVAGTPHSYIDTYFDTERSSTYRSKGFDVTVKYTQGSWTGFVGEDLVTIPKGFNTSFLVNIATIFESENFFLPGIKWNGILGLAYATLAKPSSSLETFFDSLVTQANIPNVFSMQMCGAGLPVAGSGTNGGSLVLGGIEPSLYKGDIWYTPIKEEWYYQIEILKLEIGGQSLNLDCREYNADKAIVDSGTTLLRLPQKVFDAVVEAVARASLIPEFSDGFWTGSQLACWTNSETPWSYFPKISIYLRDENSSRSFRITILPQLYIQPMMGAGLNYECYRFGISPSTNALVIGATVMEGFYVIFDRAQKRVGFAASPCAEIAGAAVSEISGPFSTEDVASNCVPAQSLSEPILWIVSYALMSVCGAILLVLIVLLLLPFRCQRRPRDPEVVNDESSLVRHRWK

Pepsin A = Pepsin A (Homo sapiens, UniProt P0DJD9); assay: Inhibition of pepsin A (unknown origin)
Sequence of Pepsin A (P0DJD9 whole entry): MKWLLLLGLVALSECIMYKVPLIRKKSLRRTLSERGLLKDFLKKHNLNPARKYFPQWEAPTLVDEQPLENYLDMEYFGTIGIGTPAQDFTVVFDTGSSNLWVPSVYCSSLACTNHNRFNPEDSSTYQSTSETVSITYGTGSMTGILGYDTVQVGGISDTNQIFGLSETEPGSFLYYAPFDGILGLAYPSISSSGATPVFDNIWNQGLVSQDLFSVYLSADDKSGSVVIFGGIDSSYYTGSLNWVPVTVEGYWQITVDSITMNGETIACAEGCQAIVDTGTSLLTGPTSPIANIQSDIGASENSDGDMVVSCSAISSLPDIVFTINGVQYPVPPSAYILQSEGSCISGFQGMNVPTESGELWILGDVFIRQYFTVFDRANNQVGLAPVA

Gastricsin = biological target: T3, Gastricsin (Homo sapiens, UniProt P20142); assay: Inhibition of pepsin C (unknown origin)
T3 sequence (P20142 whole entry): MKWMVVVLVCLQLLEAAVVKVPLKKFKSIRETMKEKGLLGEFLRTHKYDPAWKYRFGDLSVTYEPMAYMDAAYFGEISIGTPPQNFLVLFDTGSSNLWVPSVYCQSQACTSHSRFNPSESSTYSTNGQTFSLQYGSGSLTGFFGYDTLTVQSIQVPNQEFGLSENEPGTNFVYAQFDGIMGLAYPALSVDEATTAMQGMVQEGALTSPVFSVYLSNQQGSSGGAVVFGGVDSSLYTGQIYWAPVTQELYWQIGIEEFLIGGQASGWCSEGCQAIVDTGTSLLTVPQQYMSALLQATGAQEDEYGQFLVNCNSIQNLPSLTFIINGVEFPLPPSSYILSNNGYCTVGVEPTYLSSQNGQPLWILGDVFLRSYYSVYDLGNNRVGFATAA

Cytochrome P450 2D6 = Cytochrome P450 2D6 (Homo sapiens, UniProt P10635); assay: Inhibition of CYP2D6 (unknown origin); type: ADME
Sequence of Cytochrome P450 2D6 (P10635 whole entry): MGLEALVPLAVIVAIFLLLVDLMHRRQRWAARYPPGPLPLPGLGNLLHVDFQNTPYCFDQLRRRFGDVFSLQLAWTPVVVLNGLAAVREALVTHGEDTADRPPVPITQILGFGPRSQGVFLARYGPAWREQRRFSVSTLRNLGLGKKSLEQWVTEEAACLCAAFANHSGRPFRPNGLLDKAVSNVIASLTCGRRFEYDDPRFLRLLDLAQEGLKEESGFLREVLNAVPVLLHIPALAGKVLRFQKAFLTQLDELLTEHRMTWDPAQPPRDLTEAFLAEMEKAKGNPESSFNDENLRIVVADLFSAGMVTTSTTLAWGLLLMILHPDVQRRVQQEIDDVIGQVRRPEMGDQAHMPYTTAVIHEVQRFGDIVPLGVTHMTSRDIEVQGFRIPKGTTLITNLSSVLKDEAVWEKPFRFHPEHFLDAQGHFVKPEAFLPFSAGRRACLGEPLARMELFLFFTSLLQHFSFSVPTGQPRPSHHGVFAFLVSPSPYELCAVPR

[1] = Volume of distribution at steady state in cannulated fed Sprague-Dawley rat at 2 mg/kg, iv; type: ADME, organism-based; set-up: dose 2 mg/kg, route intravenous; settings: in vivo, read-out: Vdss
Rattus norvegicus = assay: AUC (0 to 24 hrs) in cannulated fed Sprague-Dawley rat at 6 mg/kg, po; type: ADME, organism-based, Plasma; set-up: time < 24 hr, dose 6 mg/kg, route oral; settings: in vivo

- IC50 (Renin): 0.04 µM
- IC50 (Beta-secretase 2): > 30 µM
- IC50 (Pepsin A): > 30 µM
- IC50 (Gastricsin): > 30 µM
- IC50 (Cytochrome P450 2D6): > 20 µM
- Vd [1]: 4.9 L/kg
- AUC (Rattus norvegicus): 0.468 µM·h
Structure (SMILES): COCCCOc1cc(C(=O)N(C[C@@H]2CNC[C@H]2OC(=O)NCc2ccccc2)C(C)C)ccc1OC
